For eight compounds, inhibition and IC50 results are on record in publication PMC11184559, “Identification and Validation of Compounds Targeting Leishmania major Leucyl-Aminopeptidase M17” (ACS Infectious Diseases, 2024).

In assay [1] the test system is L. donovani intracellular amastigotes. In words: Leishmania donovani intracellular (intramacrophage) assay, single concentration. The class given is cell-based. To be noted: Leishmania donovani, Macrophage, 96 h, intracellular amastigotes in macrophages, Hoechst imaging, read-out: Inhibition of L. donovani proliferation (%). On the procedure: The effect of the compounds selected as inhibitors of rLmLAP on the proliferation of L. donovani amastigotes was evaluated at a concentration of 50 μM. Macrophage cultures (ECACC, catalog number: 88081201) were used as host cells. Parasites were incubated with 4.27× 10^7 macrophages, at a multiplicity of infection (MOI) of 5, at 37 °C with 5% CO2, overnight in DMEM medium supplemented with 4.5 g/L glucose and glutamine and 10% FBS, in a Millicell HY T-600 three-layer culture flask (Merck Millipore, Solna, Sweden). […] Macrophages were incubated for another 24 h in the above conditions with 133 μL of fresh DMEM medium prewarmed at 37 °C and supplemented with 10% FBS to obtain a high count of intracellular amastigotes.
Forty-two hours after macrophage infection, compounds (50 μM, 250 nL in DMSO) were dispensed using LabCyte ECHO into each well of 384-well dark flat bottom plates (Corning, New York, USA). The plates were incubated at 37 °C, 5% CO2, for 4 h (without compounds, with DMSO, to determine the initial level of infection) and for 96 h (with and without compounds).

A further assay concerns the target rLmLAP (Leishmania major, UniProt Q7KF27). The assay is described as follows: RapidFire-MS aminopeptidase activity assay: inhibition of rLmLAP (LSTVIVR substrate). Format: biochemical. The conditions noted are these: for IC50: RapidFire-MS, 5 nM enzyme, 10 μM LSTVIVR, 20 min preincubation, 0.195-100 μM, mean ± standard error (n = 3). The method, then:
Assays were carried out as previously described,[24] with some differences indicated below. The reaction mix consisted of 0 nM (control) and 30 nM rLmLAP in 1× PBS, pH 7.0, 0.005% (v/v) NP-40, plus 7.5 μL of LSTVIVR substrate peptide in the same buffer. For product quantification, the peak areas of the LSTVIVR peptide were integrated with respect to the internal standard LSTVIVR* peptide. The C-terminal arginine was chosen because this amino acid is amenable to isotopic labeling.[45]
rLmLAP was assayed at 5 nM with 10 μM (1× appKM) of LSTVIVR substrate peptide. The enzyme was preincubated with bestatin or DMSO for 20 min. Bestatin was prepared at 10 concentrations in DMSO, covering the range from 0.39 to 100 μM. […] The remaining experimental conditions were maintained, as described above.
A high-throughput screen was conducted against rLmLAP using 3,383 compounds with known protease inhibitor motifs. The compounds were dispensed onto plates using an ECHO 550 acoustic dispenser (Labcyte, Sunnyvale, CA). The enzyme was assayed at 5 nM with 10 μM (1× appKM) LSTVIVR substrate for 60 min. Before adding the substrate, the enzyme was preincubated with 45 nL of the compounds or DMSO for 20 min. Compounds, dissolved in DMSO, were tested at 30 μM. […] No replicates were performed for each inhibitor in this experiment. The remaining experimental conditions were kept constant as described above. The ActivityBase program from IDBS provider (https://www.idbs.com) was used to process and analyze the data. Selection criteria for potential inhibitors in this screen required an inhibition percentage greater than the mean (calculated from the inhibition percentages of all the inhibitors) plus three standard deviations (SD). All compounds were purchased commercially and are >95% pure by HPLC.
To obtain IC50 data for screen-detected rLmLAP inhibitors at a single concentration, ten-point concentration–response curves were generated for selected inhibitors showing greater than mean ±3 SD inhibition. The curves were prepared in 384-well plates with a maximum concentration of 100 μM and 1:2 serial dilutions in DMSO (0.195–100 μM) using an ECHO 550 acoustic dispenser. All other experimental conditions were as described above for RapidFire-MS optimization. Three replicates of each concentration of inhibitor were evaluated. The IC50 value was calculated by nonlinear fitting of a four-parameter logistic function to the experimental data. Curve fitting and IC50 calculations were performed using IDBS ActivityBase XE version 9.2.0.106. Inhibitory activity was determined using the peak area ratio, calculated as the reaction product (STVIVR) divided by its internal standard (*LSTVIVR). The peak area ratio of the reaction without enzyme was defined as 100% inhibitory activity, and that of the complete reaction mixture was defined as 0% inhibitory activity. At least three replicates were generated for each hit compound.

Molecules are shown by their SMILES. Several values for one entry are separate records, joined by “and”; a condition that tells them apart may be missing. Equal values may be shown once.

Sequence of rLmLAP (Q7KF27 entry or part of it): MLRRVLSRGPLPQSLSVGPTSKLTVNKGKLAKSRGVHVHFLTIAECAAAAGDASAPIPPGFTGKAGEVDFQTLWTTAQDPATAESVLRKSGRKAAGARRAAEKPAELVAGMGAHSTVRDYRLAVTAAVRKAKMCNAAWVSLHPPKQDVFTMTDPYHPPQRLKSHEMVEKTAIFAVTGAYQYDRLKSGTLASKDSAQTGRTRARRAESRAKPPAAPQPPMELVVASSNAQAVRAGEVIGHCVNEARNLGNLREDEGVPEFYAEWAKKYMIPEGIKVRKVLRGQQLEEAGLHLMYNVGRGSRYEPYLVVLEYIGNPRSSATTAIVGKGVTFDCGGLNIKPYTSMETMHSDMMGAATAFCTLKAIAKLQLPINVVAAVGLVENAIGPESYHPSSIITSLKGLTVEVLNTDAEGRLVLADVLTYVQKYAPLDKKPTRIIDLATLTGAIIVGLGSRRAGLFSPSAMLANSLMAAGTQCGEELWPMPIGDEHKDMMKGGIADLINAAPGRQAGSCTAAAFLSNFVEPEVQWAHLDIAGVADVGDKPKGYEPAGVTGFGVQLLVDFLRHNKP

Take `N#CC(=Cc1cn(Cc2ccc(C(=O)O)o2)c2ccccc12)c1nc2ccccc2[nH]1` [DDD00092640]: the inhibition at 50 µM in assay [1] was found to be 0%. The IC50 against rLmLAP turned out to be 20.2 ± 1.1 µM.

Turning to `Cc1ccc(C(=O)O)cc1S(=O)(=O)Nc1cccc(C2SCCS2)c1` [DDD00096698], the inhibition at 50 µM in assay [1] was found to be 0%. This compound also returned an IC50 against rLmLAP of 50 ± 4 µM. Also, the inhibition at 30 µM on rLmLAP (single-point high-throughput screen at 30 μM, read-out: Inhibition of rLmLAP in the screening) was ~65%.

As to `CC(C)C[C@H](NC(=O)[C@@H](O)[C@H](N)Cc1ccccc1)C(=O)O` [Bestatin, reference compound], the concentration for half-maximal inhibition (IC50) on rLmLAP was 6 µM and 6.1 µM.

Regarding `O=C(O)c1ccc(-c2nccs2)s1` [DDD00097905], the inhibition at 50 µM in assay [1] amounted to 0%. Further, the IC50 against rLmLAP worked out at 37.1 ± 3.3 µM.

On to `Cc1cc(C(=O)N(Cc2ccco2)Cc2cc3ccc(Cl)cc3nc2N2CCCC2)n(C)n1` [DDD00092594], for which the inhibition at 50 µM in assay [1] is 19.9 ± 1.3%. At rLmLAP, this compound registered an IC50 of 36.3 ± 3.3 µM.

Consider `CS(=O)(=O)Nc1cc2ccccc2cc1C(=O)O` [DDD00095117], for which the inhibition at 50 µM in assay [1] is 0%. In addition, it took 19 ± 1 µM to reach half-maximal inhibition at rLmLAP (IC50).

In the case of `COc1ccc(S(=O)(=O)N2Cc3ccccc3CC2C(=O)O)cc1` (stereo not shown) [DDD00095849], the inhibition at 50 µM in assay [1] came out at 12.7 ± 1.5%. The compound further registered a half-maximal inhibitory concentration (IC50) against rLmLAP of 60 ± 5 µM.

Take `N#CC(=Cc1cn(Cc2ccc(C(=O)O)o2)c2ccccc12)c1ccc(F)cc1` [DDD00092624]: in assay [1], the inhibition at 50 µM came out at 7 ± 1%. At rLmLAP, this compound returned a half-maximal inhibitory concentration (IC50) of 35.2 ± 3.2 µM.

Broadly, the IC50 is the concentration needed to halve the response being measured.
